Assay results: ChEMBL document CHEMBL1255305, “Affinity of doripenem and comparators to penicillin-binding proteins in Escherichia coli and Pseudomonas aeruginosa” (Antimicrob Agents Chemother, 2008)
In brackets after ≈: the same amount, converted by molar mass. Activity calls are given as the source filed them. No cut-off for these calls is given here.

What was measured:
[1] = Inhibition of Bocillin FL binding to PBP5 in Escherichia coli MC4100 membranes; format: cell membranes
[2] = Inhibition of Bocillin FL binding to PBP1A in Escherichia coli MC4100 membranes; format: cell membranes
[3] = Inhibition of Bocillin FL binding to PBP3 in Escherichia coli MC4100 membranes; format: cell membranes
[4] = Inhibition of Bocillin FL binding to PBP2 in Pseudomonas aeruginosa PAO1 membranes
[5] = Inhibition of Bocillin FL binding to PBP3 in Pseudomonas aeruginosa 27853 membranes
[6] = Inhibition of Bocillin FL binding to PBP4 in Pseudomonas aeruginosa 27853 membranes
[7] = Inhibition of Bocillin FL binding to PBP1A in Pseudomonas aeruginosa PAO1 membranes
[8] = Inhibition of Bocillin FL binding to PBP3 in Pseudomonas aeruginosa PAO1 membranes
[9] = Inhibition of Bocillin FL binding to PBP1A in Pseudomonas aeruginosa 27853 membranes
[10] = Inhibition of Bocillin FL binding to PBP4 in Escherichia coli MC4100 membranes; format: cell membranes
[11] = Inhibition of Bocillin FL binding to PBP4 in Pseudomonas aeruginosa PAO1 membranes
[12] = Inhibition of Bocillin FL binding to PBP2 in Escherichia coli MC4100 membranes; format: cell membranes
[13] = Inhibition of Bocillin FL binding to PBP1B in Pseudomonas aeruginosa PAO1 membranes
[14] = Inhibition of Bocillin FL binding to PBP1B in Escherichia coli MC4100 membranes; format: cell membranes
[15] = Inhibition of Bocillin FL binding to PBP5/6 in Pseudomonas aeruginosa 27853 membranes
[16] = Inhibition of Bocillin FL binding to PBP6 in Escherichia coli MC4100 membranes; format: cell membranes
[17] = Inhibition of Bocillin FL binding to PBP2 in Pseudomonas aeruginosa 27853 membranes
[18] = Inhibition of Bocillin FL binding to PBP5/6 in Pseudomonas aeruginosa PAO1 membranes
[19] = Inhibition of Bocillin FL binding to PBP1B in Pseudomonas aeruginosa 27853 membranes
Pseudomonas aeruginosa [20] = test: Antimicrobial activity against Pseudomonas aeruginosa PAO1 by CLSI protocol based broth microdilution method; format: functional
Pseudomonas aeruginosa [21] = test: Antimicrobial activity against Pseudomonas aeruginosa 27853 by CLSI protocol based broth microdilution method; format: functional
Escherichia coli [22] = test: Antimicrobial activity against Escherichia coli MC4100 by CLSI protocol based broth microdilution method; format: functional
Pseudomonas aeruginosa [23] = test: Induction of morphological changes in Pseudomonas aeruginosa 27853 assessed as increase in cell length at antimicrobial MIC after 240 mins by microscopy; format: functional, organism-based
Pseudomonas aeruginosa [24] = test: Induction of morphological changes in Pseudomonas aeruginosa 27853 assessed as induction of sphere formation at antimicrobial MIC after 60 mins by microscopy; format: functional, organism-based
Escherichia coli [25] = test: Induction of morphological changes in Escherichia coli MC4100 assessed as induction of sphere formation at antimicrobial MIC after 4 hrs by microscopy; format: functional, organism-based
Pseudomonas aeruginosa [26] = test: Induction of morphological changes in Pseudomonas aeruginosa 27853 assessed as induction of sphere formation at antimicrobial MIC after 240 mins by microscopy; format: functional, organism-based
Pseudomonas aeruginosa [27] = test: Induction of morphological changes in Pseudomonas aeruginosa 27853 assessed as increase in cell length at antimicrobial MIC after 60 mins by microscopy; format: functional, organism-based

| SMILES | IC50 [1] [µg/mL] | IC50 [2] [µg/mL] | IC50 [3] [µg/mL] | IC50 [4] [µg/mL] | IC50 [5] [µg/mL] | IC50 [6] [µg/mL] | IC50 [7] [µg/mL] | IC50 [8] [µg/mL] | IC50 [9] [µg/mL] | IC50 [10] [µg/mL] | IC50 [11] [µg/mL] | IC50 [12] [µg/mL] | IC50 [13] [µg/mL] | IC50 [14] [µg/mL] | IC50 [15] [µg/mL] | IC50 [16] [µg/mL] | IC50 [17] [µg/mL] | IC50 [18] [µg/mL] | IC50 [19] [µg/mL] | MIC (Pseudomonas aeruginosa [20]) [µg/mL] | other results |
| --- | --- | --- | --- | --- | --- | --- | --- | --- | --- | --- | --- | --- | --- | --- | --- | --- | --- | --- | --- | --- | --- |
| C[C@H]1[C@H](NC(=O)/C(=N\OC(C)(C)C(=O)O)c2csc(N)n2)C(=O)N1S(=O)(=O)O [AZTREONAM] | > 8 | > 8 | 0.03 (≈ 0.0689 µM) | 16 (≈ 36.7 µM) | < 0.02 | > 4 | 2 (≈ 4.59 µM) | 0.03 (≈ 0.0689 µM) | 2 (≈ 4.59 µM) | > 8 | 16 (≈ 36.7 µM) | > 8 | 2 (≈ 4.59 µM) | > 8 | > 4 | > 8 | 4 (≈ 9.19 µM) | > 16 | 2 (≈ 4.59 µM) | – | – |
| CC(C)(O/N=C(\C(=O)N[C@@H]1C(=O)N2C(C(=O)[O-])=C(C[n+]3ccccc3)CS[C@H]12)c1csc(N)n1)C(=O)O [CEFTAZIDIME] | > 4 | 1.1 (≈ 2.01 µM) | 0.07 (≈ 0.128 µM) | > 32 | 0.1 (≈ 0.183 µM) | 2 (≈ 3.66 µM) | 0.2 (≈ 0.366 µM) | 0.1 (≈ 0.183 µM) | 0.3 (≈ 0.549 µM) | > 4 | 2 (≈ 3.66 µM) | 4 (≈ 7.32 µM) | 3 (≈ 5.49 µM) | 1.1 (≈ 2.01 µM) | > 4 | > 4 | 4 (≈ 7.32 µM) | > 32 | 1.6 (≈ 2.93 µM) | 1 (≈ 1.83 µM) | MIC (Pseudomonas aeruginosa [21]): 1 µg/mL (≈ 1.83 µM); MIC (Escherichia coli [22]): 0.12 µg/mL (≈ 0.22 µM) |
| C[C@@H](O)[C@H]1C(=O)N2C(C(=O)O)=C(S[C@@H]3CN[C@H](CNS(N)(=O)=O)C3)[C@H](C)[C@H]12 [DORIPENEM] | 4 (≈ 9.51 µM) | 1.2 (≈ 2.85 µM) | 2 (≈ 4.76 µM) | 0.06 (≈ 0.143 µM) | 0.06 (≈ 0.143 µM) | < 0.008 | 0.5 (≈ 1.19 µM) | 0.07 (≈ 0.166 µM) | 0.8 (≈ 1.9 µM) | 0.02 (≈ 0.0476 µM) | 0.008 (≈ 0.019 µM) | 0.008 (≈ 0.019 µM) | 0.6 (≈ 1.43 µM) | 1.2 (≈ 2.85 µM) | > 4 | 1 (≈ 2.38 µM) | 0.04 (≈ 0.0951 µM) | 8 (≈ 19 µM) | 0.6 (≈ 1.43 µM) | 0.25 (≈ 0.595 µM) | Activity (Pseudomonas aeruginosa [23]): Active; Activity (Pseudomonas aeruginosa [24]): Active; Activity (Escherichia coli [25]): Active; MIC (Pseudomonas aeruginosa [21]): 0.25 µg/mL (≈ 0.595 µM); MIC (Escherichia coli [22]): 0.03 µg/mL (≈ 0.0713 µM) |
| C[C@@H](O)[C@H]1C(=O)N2C(C(=O)O)=C(SCCNC=N)C[C@H]12 [IMIPENEM ANHYDROUS] | 0.4 (≈ 1.34 µM) | 0.5 (≈ 1.67 µM) | 8 (≈ 26.7 µM) | 0.1 (≈ 0.334 µM) | 0.3 (≈ 1 µM) | < 0.008 | 0.1 (≈ 0.334 µM) | 0.09 (≈ 0.301 µM) | 0.1 (≈ 0.334 µM) | 0.01 (≈ 0.0334 µM) | 0.008 (≈ 0.0267 µM) | 0.008 (≈ 0.0267 µM) | 0.2 (≈ 0.668 µM) | 0.4 (≈ 1.34 µM) | 1 (≈ 3.34 µM) | 0.1 (≈ 0.334 µM) | 0.1 (≈ 0.334 µM) | 2 (≈ 6.68 µM) | 0.1 (≈ 0.334 µM) | 1 (≈ 3.34 µM) | Activity (Escherichia coli [25]): Active; MIC (Pseudomonas aeruginosa [21]): 2 µg/mL (≈ 6.68 µM); MIC (Escherichia coli [22]): 0.25 µg/mL (≈ 0.835 µM); Activity (Pseudomonas aeruginosa [26]): Active |
| C[C@@H](O)[C@H]1C(=O)N2C(C(=O)O)=C(S[C@@H]3CN[C@H](C(=O)N(C)C)C3)[C@H](C)[C@H]12 [MEROPENEM] | 4 (≈ 10.4 µM) | 1.7 (≈ 4.43 µM) | 0.6 (≈ 1.56 µM) | 0.05 (≈ 0.13 µM) | 0.08 (≈ 0.209 µM) | 0.02 (≈ 0.0522 µM) | 0.5 (≈ 1.3 µM) | 0.08 (≈ 0.209 µM) | 0.6 (≈ 1.56 µM) | 0.02 (≈ 0.0522 µM) | 0.008 (≈ 0.0209 µM) | 0.008 (≈ 0.0209 µM) | 0.5 (≈ 1.3 µM) | 1.3 (≈ 3.39 µM) | > 4 | 0.03 (≈ 0.0782 µM) | 0.06 (≈ 0.156 µM) | 16 (≈ 41.7 µM) | 0.6 (≈ 1.56 µM) | 0.5 (≈ 1.3 µM) | Activity (Pseudomonas aeruginosa [23]): Active; Activity (Pseudomonas aeruginosa [27]): Active; Activity (Escherichia coli [25]): Active; MIC (Pseudomonas aeruginosa [21]): 0.25 µg/mL (≈ 0.652 µM); MIC (Escherichia coli [22]): 0.03 µg/mL (≈ 0.0782 µM) |
